Here are results for 23 compounds from patent publication US20130150376A1, “Novel Sultam Compounds” (PFIZER INC., priority 2010, published 2013).

The target of this experiment is T1, BACE1 enzyme (soluble, truncated BACE enzyme, BACE1deltaTM96His) (Homo sapiens, UniProt P56817).
T1 construct: soluble, truncated BACE enzyme (BACE1deltaTM96His); His; made in house
The experiment is described as follows: BACE1 Fluorescent Polarization (FP) Assay. It is filed as biochemical. The following applies: geometric mean of 2-4 IC50 determinations unless footnoted (^2: 5-6 determinations; ^4: single determination). The source says:
BACE1 Fluorescent Polarization (FP) Assay
The fluorescently tagged synthetic substrate, Biotin-GLTNIKTEEISEISŶEVEFR-C[oregon green]KK-OH can be efficiently cleaved by the beta-secretase enzyme and is therefore useful to assay beta-secretase activity in the presence or absence of inhibitory compounds. The his tagged BACE1 enzyme was affinity purified material from conditioned media of CHO-K1 cells that had been transfected to express soluble, truncated BACE enzyme (BACE1deltaTM96His). Compounds were incubated in a ½ log dose response (from a top concentration of 100 μM) with BACE1 enzyme (0.1 nM final) and the biotinylated fluorescent peptide substrate (150 nM final) in assay buffer containing 100 mM sodium acetate, pH 4.5 (brought to pH with acetic acid), and 0.001% Tween-20. Total reaction volumes of 30 μL were carried out in 384-well black plates (Thermo Scientific 4318). Plates were covered and incubated for 3 hours at 37° C. The reactions were then stopped by addition of 30 μL of 1.5 μM Streptavidin (Pierce, 21125). After a 10 minute incubation at room temperature, plates were read on a PerkinElmer Envision for fluorescence polarization (Ex485 nm/Em530 nm). The activity of the beta-secretase enzyme is detected by changes in the fluorescence polarization (Δ mP) that occur when the substrate is cleaved by the enzyme.

Where [1] appears, read: 8-point curve, read-out: BACE activity, 8-point curve, IC50.
Where [2] appears, read: 11-point curve, read-out: BACE activity, 11-point curve, IC50.

Molecules are shown by their SMILES. Structures can show the parent of a compound that is named as a salt. Where two headings read alike, the source gives them in different places.

T1 sequence (P56817 46-457): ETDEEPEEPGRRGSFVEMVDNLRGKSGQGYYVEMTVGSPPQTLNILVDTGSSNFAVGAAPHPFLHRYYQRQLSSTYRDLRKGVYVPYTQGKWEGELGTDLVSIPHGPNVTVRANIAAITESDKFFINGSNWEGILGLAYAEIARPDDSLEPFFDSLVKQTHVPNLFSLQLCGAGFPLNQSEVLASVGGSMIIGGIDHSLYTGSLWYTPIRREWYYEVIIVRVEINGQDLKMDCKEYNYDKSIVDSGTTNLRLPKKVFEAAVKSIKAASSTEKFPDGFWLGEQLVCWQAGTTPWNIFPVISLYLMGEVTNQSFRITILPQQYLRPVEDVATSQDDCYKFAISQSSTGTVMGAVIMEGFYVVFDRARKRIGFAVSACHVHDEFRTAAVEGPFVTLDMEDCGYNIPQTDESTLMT

Turning to `Cc1ccsc1-c1ncsc1CN1CC[C@]2(C=CS(=O)(=O)N2c2cccc(F)c2)C[C@@H]1C` [Example 45, (5R,7S)-1-(3-fluorophenyl)-7-methyl-8-{[4-(3-methyl-2-thienyl)-1,3-thiazol-5-yl]methyl}-2-thia-1,8-diazaspiro[4.5]dec-3-ene 2,2-dioxide], the IC50 under setting [1] came to 5.6 µM and the IC50 under setting [2] was found to be 15.3 µM. For the compound `C[C@H]1C[C@@]2(C=CS(=O)(=O)N2c2cccc(F)c2)CCN1Cc1scnc1-c1cccnc1` [Example 48, (5R,7S)-1-(3-fluorophenyl)-7-methyl-8-[(4-pyridin-3-yl-1,3-thiazol-5-yl)methyl]-2-thia-1,8-diazaspiro[4.5]dec-3-ene 2,2-dioxide], the IC50 is, setting by setting: under setting [1], 5.6 µM; under setting [2], 9.03 µM. As to `Cc1cncc(-c2ncsc2CN2CC[C@]3(C=CS(=O)(=O)N3c3cccc(F)c3)C[C@@H]2C)c1` [Example 49, (5R,7S)-1-(3-fluorophenyl)-7-methyl-8-{[4-(5-methylpyridin-3-yl)-1,3-thiazol-5-yl]methyl}-2-thia-1,8-diazaspiro[4.5]dec-3-ene 2,2-dioxide, hydrochloride salt], the half-maximal inhibitory concentration (IC50) by setting is: under setting [1], 6.72 µM; under setting [2], 15.2 µM. Taken in the same sequence, the figures for `Cc1ccncc1-c1ncsc1CN1CC[C@]2(C=CS(=O)(=O)N2c2cccc(F)c2)C[C@@H]1C` [Example 50, (5R,7S)-1-(3-fluorophenyl)-7-methyl-8-{[4-(4-methylpyridin-3-yl)-1,3-thiazol-5-yl]methyl}-2-thia-1,8-diazaspiro[4.5]dec-3-ene 2,2-dioxide, hydrochloride salt] were 7.18 µM and 25.6 µM. Taken in the same sequence, the figures for `C[C@H]1C[C@]2(CCN1Cc1ccc3[nH]ccc3c1)CCS(=O)(=O)N2c1cccc(F)c1` [Example 51, (5R,7S)-1-(3-fluorophenyl)-8-(1H-indol-5-ylmethyl)-7-methyl-2-thia-1,8-diazaspiro[4.5]decane 2,2-dioxide] were 2.08 µM and 5.64 µM. Consider `Cc1ccccc1-c1cccc(CN2CC[C@]3(CCS(=O)(=O)N3c3cccc(F)c3)C[C@@H]2C)c1` [Example 52, (5R,7S)-1-(3-fluorophenyl)-7-methyl-8-[(2′-methylbiphenyl-3-yl)methyl]-2-thia-1,8-diazaspiro[4.5]decane 2,2-dioxide, formate salt], for which the IC50 under setting [1] was found to be 0.0405 µM.

On to `COc1ccc2[nH]c(CN3CC[C@]4(CCS(=O)(=O)N4c4cccc(F)c4)C[C@@H]3C)cc2c1` [Example 53, (5R,7S)-1-(3-fluorophenyl)-8-[(5-methoxy-1H-indol-2-yl)methyl]-7-methyl-2-thia-1,8-diazaspiro[4.5]decane 2,2-dioxide], for which the concentration for half-maximal inhibition (IC50) runs as follows: under setting [1], 2.29 µM; under setting [2], 4.46 µM.

Consider `Cc1ccccc1-c1cccc(CN2CC[C@]3(C=CS(=O)(=O)N3c3cccc(F)c3)C[C@@H]2C)c1` [Example 54, (5R,7S)-1-(3-fluorophenyl)-7-methyl-8-[(2′-methylbiphenyl-3-yl)methyl]-2-thia-1,8-diazaspiro[4.5]dec-3-ene 2,2-dioxide], for which the IC50 is, setting by setting: under setting [1], 0.0533 µM; under setting [2], 0.137 µM. For the compound `Cc1ccncc1-c1cccc(CN2CC[C@]3(CCS(=O)(=O)N3c3cccc(F)c3)C[C@@H]2C)c1` [Example 55, (5R,7S)-1-(3-fluorophenyl)-7-methyl-8-[3-(4-methy|pyridin-3-yl)benzyl]-2-thia-1,8-diazaspiro[4.5]decane 2,2-dioxide, hydrochloride salt], the 50% inhibitory concentration (IC50) under setting [1] was found to be 0.392 µM and the IC50 under setting [2] worked out at 1.02 µM. `C[C@H]1C[C@]2(CCN1Cc1ncoc1-c1cccs1)CCS(=O)(=O)N2c1cccc(F)c1` [Example 56, (5R,7S)-1-(3-fluorophenyl)-7-methyl-8-{[5-(2-thienyl)-1,3-oxazol-4-yl]methyl}-2-thia-1,8-diazaspiro[4.5]decane 2,2-dioxide, hydrochloride salt]: the IC50 under setting [2] is 15.4 µM.

`Cc1cncc(-c2ocnc2CN2CC[C@]3(CCS(=O)(=O)N3c3cccc(F)c3)C[C@@H]2C)c1` [Example 57, (5R,7S)-1-(3-fluorophenyl)-7-methyl-8-{[5-(5-methylpyridin-3-yl)-1,3-oxazol-4-yl]methyl}-2-thia-1,8-diazaspiro[4.5]decane 2,2-dioxide, hydrochloride salt]: the half-maximal inhibitory concentration (IC50) under setting [2] was 4.08 µM. Still for that read-out and setting: as for `Cc1ccsc1-c1ocnc1CN1CC[C@]2(CCS(=O)(=O)N2c2cccc(F)c2)C[C@@H]1C` [Example 58, (5R,7S)-1-(3-fluorophenyl)-7-methyl-8-{[5-(3-methyl-2-thienyl)-1,3-oxazol-4-yl]methyl}-2-thia-1,8-diazaspiro[4.5]decane 2,2-dioxide, hydrochloride salt], the figure is 6.53 µM. With `Cc1ncsc1-c1ocnc1CN1CC[C@]2(CCS(=O)(=O)N2c2cccc(F)c2)C[C@@H]1C` [Example 59, (5R,7S)-1-(3-fluorophenyl)-7-methyl-8-{[5-(4-methyl-1,3-thiazol-5-yl)-1,3-oxazol-4-yt]methyl}-2-thia-1,8-diazaspiro[4.5]decane 2,2-dioxide, hydrochloride salt], the IC50 under setting [2] stood at 8.82 µM. Same read-out and setting: as for `C[C@H]1C[C@]2(CCN1Cc1ncoc1-c1cncs1)CCS(=O)(=O)N2c1cccc(F)c1` [Example 60, (5R,7S)-1-(3-fluorophenyl)-7-methyl-8-{[5-(1,3-thiazol-5-yl)-1,3-oxazol-4-yl]methyl}-2-thia-1,8-diazaspiro[4.5]decane 2,2-dioxide, hydrochloride salt], the figure is 6.54 µM.

In the case of `Cc1ccccc1-c1cc(CN2CC[C@]3(CCS(=O)(=O)N3c3cccc(F)c3)C[C@@H]2C)ccc1O` [Example 62, 5-{[(5R,7S)-1-(3-fluorophenyl)-7-methyl-2,2-dioxido-2-thia-1,8-diazaspiro[4.5]dec-8-yl]methyl-2′-methylbiphenyl-2-ol, hydrochloride salt], the concentration for half-maximal inhibition (IC50) is 0.019 µM under setting [1] and 0.0333 µM under setting [2]. For the compound `COC1=CS(=O)(=O)N(c2cccc(F)c2)[C@@]12CCN(Cc1cccc(OC(C)C)c1)[C@@H](C)C2` [Example 63, (5R,7S)-1-(3-fluorophenyl)-8-(3-isopropoxybenzyl)-4-methoxy-7-methyl-2-thia-1,8-diazaspiro[4.5]dec-3-ene 2,2-dioxide], the IC50 under setting [1] is 5.82 µM.

In the case of `CC(C)Oc1cccc(CN2CC[C@@]3(C[C@@H]2C)C(=O)C(C)(C)S(=O)(=O)N3c2cccc(F)c2)c1` [Example 64, (5R,7S)-1-(3-fluorophenyl)-8-(3-isopropoxybenzyl)-3,3,7-trimethyl-2-thia-1,8-diazaspiro[4.5]decan-4-one 2,2-dioxide, hydrochloride salt], the 50% inhibitory concentration (IC50) under setting [2] is 25.7 µM.

With `CC(C)Oc1cccc(CN2CC[C@@]3(C[C@@H]2C)C(O)CS(=O)(=O)N3c2cccc(F)c2)c1` (stereo partly drawn) [Example 65, (5R,7S)-1-(3-fluorophenyl)-8-(3-isopropoxybenzyl)-7-methyl-2-thia-1,8-diazaspiro[4.5]decan-4-ol 2,2-dioxide], the half-inhibitory concentration (IC50) under setting [2] was found to be 3.16 µM.

In the case of `CC(C)Oc1cc(CN2CC[C@]3(C=CS(=O)(=O)N3c3ccc(F)c(F)c3)C[C@@H]2C)ccc1O` [Example 67, 4-{[(5R,7S)-1-(3,4-difluorophenyl)-7-methyl-2,2-dioxido-2-thia-1,8-diazaspiro[4.5]dec-3-en-8-yl]methyl}-2-isopropoxyphenol], the IC50 stood at 0.0593 µM under setting [1] and 0.429 µM under setting [2]. Taken in the same sequence, the figures for `CC(C)Oc1cccc(CN2CC[C@]3(C=CS(=O)(=O)N3c3ccc(F)c(F)c3)C[C@@H]2C)c1` [Example 68, (5R,7S)-1-(3,4-difluorophenyl)-8-(3-isopropoxybenzyl)-7-methyl-2-thia-1,8-diazaspiro[4.5]dec-3-ene 2,2-dioxide, hydrochloride salt] were 1.77 µM and 5.79 µM. Taken in the same sequence, the figures for `C[C@H]1C[C@@]2(C=CS(=O)(=O)N2c2cccc(F)c2)CCN1Cc1ncoc1C1CCCO1` (stereo partly drawn) [Example 70, (5R,7S)-1-(3-fluorophenyl)-7-methyl-8-{[5-(tetrahydrofuran-2-yl)-1,3-oxazol-4-yl]methyl}-2-thia-1,8-diazaspiro[4.5]dec-3-ene 2,2-dioxide] were 2.56 µM and 6.81 µM. On to `C[C@H]1C[C@@]2(C=CS(=O)(=O)N2c2cccc(F)c2)CCN1Cc1ncoc1C1CCOC1` (stereo partly drawn) [Example 71, (5R,7S)-1-(3-fluorophenyl)-7-methyl-8-{[5-(tetrahydrofuran-3-yl)-1,3-oxazol-4-yl]methyl}-2-thia-1,8-diazaspiro[4.5]dec-3-ene 2,2-dioxide], for which the half-maximal inhibitory concentration (IC50) under setting [1] amounted to 1.29 µM and the half-maximal inhibitory concentration (IC50) under setting [2] was found to be 2.49 µM. Turning to `Cc1csnc1-c1cc(CN2CC[C@]3(C=CS(=O)(=O)N3c3cccc(F)c3)C[C@@H]2C)ccc1O` [Example 72, 4-{[(5R,7S)-1-(3-fluorophenyl)-7-methyl-2,2-dioxido-2-thia-1,8-diazaspiro[4.5]dec-3-en-8-yl]methyl}-2-(4-methyl-1,2-thiazol-3-yl)phenol, trifluoroacetic acid salt], the concentration for half-maximal inhibition (IC50) runs as follows: under setting [1], 0.00097 µM; under setting [2], 0.0243 µM.
